Reference: patent publication US8993574B2, “Pyrrole antifungal agents” (F2G Ltd, priority 2008, dated 2015)
Values after ≈ are worked out from the molar mass of the structure shown.

Key:
Format in all cases: cell-based
Aspergillus flavus [1] = test: MIC, YAG medium; conditions: Aspergillus flavus, 24 h, 24 h at 35° C, MIC banded into grades, read-out: MIC grade, A. flavus
How it was run: (§1)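 DMSO stocks diluted in water as doubling series; spore suspension in YAG (glucose, NH4Cl, yeast extract) added to give 1−2×10^4 cfu/mL. 35° C, 24 h. Growth by OD485; MIC at >70% inhibition, mg/L.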

[2] = tested on: Aspergillus fumigatus AF210; test: MIC, YAG medium; conditions: Aspergillus fumigatus, 24 h at 35° C, MIC banded into grades, read-out: MIC grade, A. fumigatus 210
How it was run: as §1

[3] = tested on: Aspergillus fumigatus AF293; test: MIC, YAG medium; conditions: Aspergillus fumigatus, 24 h at 35° C, MIC banded into grades, read-out: MIC grade, A. fumigatus
How it was run: as §1

Aspergillus niger [4] = test: MIC, YAG medium; conditions: Aspergillus niger, 24 h at 35° C, MIC banded into grades, read-out: MIC grade, A. niger
How it was run: as §1

Aspergillus terreus AT49 [5] = test: MIC, YAG medium; conditions: Aspergillus terreus, 24 h at 35° C, MIC banded into grades, read-out: MIC grade, A. terreus 49
How it was run: as §1

Aspergillus terreus AT4 [6] = test: MIC, YAG medium; conditions: Aspergillus terreus, 24 h at 35° C, MIC banded into grades, read-out: MIC grade, A. terreus
How it was run: as §1

Aspergillus flavus [7] = test: MIC, RPMI medium; conditions: Aspergillus flavus, MIC banded into grades, read-out: MIC grade, A. flavus
How it was run: (§2)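 Minimum inhibitory concentrations were determined in glucose-supplemented (2%) RPMI buffered to pH 7.0 with 0.135 M MOPS. Wells held 1−2×10^4 cfu/mL and compound from 50 to 0.05 mg/L, incubated 24-48 h at 35° C, with >80% growth reduction by OD 485 nm as endpoint.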

[8] = tested on: Aspergillus fumigatus AF210; test: MIC, RPMI medium; conditions: Aspergillus fumigatus, AF210, MIC banded into grades, read-out: MIC grade, A. fumigatus 210
How it was run: as §2

[9] = tested on: Aspergillus fumigatus AF293; test: MIC, RPMI medium; conditions: Aspergillus fumigatus, AF293, MIC banded into grades, read-out: MIC grade, A. fumigatus
How it was run: as §2

Aspergillus niger [10] = test: MIC, RPMI medium; conditions: Aspergillus niger, MIC banded into grades, read-out: MIC grade, A. niger
How it was run: as §2

Aspergillus terreus AT49 [11] = test: MIC, RPMI medium; conditions: Aspergillus terreus, AT49, MIC banded into grades, read-out: MIC grade, A. terreus 49
How it was run: as §2

Aspergillus terreus AT4 [12] = test: MIC, RPMI medium; conditions: Aspergillus terreus, AT4, MIC banded into grades, read-out: MIC grade, A. terreus
How it was run: as §2

SMILES | MIC (Aspergillus flavus [1]) [µg/mL] | MIC [2] [µg/mL] | MIC [3] [µg/mL] | MIC (Aspergillus niger [4]) [µg/mL] | MIC (Aspergillus terreus AT49 [5]) [µg/mL] | MIC (Aspergillus terreus AT4 [6]) [µg/mL] | MIC (Aspergillus flavus [7]) [µg/mL] | MIC [8] [µg/mL] | MIC [9] [µg/mL] | MIC (Aspergillus niger [10]) [µg/mL] | MIC (Aspergillus terreus AT49 [11]) [µg/mL] | MIC (Aspergillus terreus AT4 [12]) [µg/mL]
CCn1c(C)cc(-c2ccccc2)c1C(=O)C(=O)Nc1ccc(N2CCN(c3cc(C)cc(C)n3)CC2)cc1 [Example 34, N-{4-[4-(4,6-Dimethyl-pyridin-2-yl)-piperazin-1-yl]-phenyl}-2-(1-ethyl-5-methyl-3-phenyl-1H-pyrrol-2-yl)-2-oxo-acetamide] | < 1 | < 1 | < 1 | < 1 | < 1 | < 1 | < 1 | < 1 | < 1 | < 1 | < 1 | < 1
CCCn1c(C)cc(-c2ccccc2)c1C(=O)C(=O)Nc1ccc(N2CCN(c3cc(C)cc(C)n3)CC2)cc1 [Example 35, N-{4-[4-(4,6-Dimethyl-pyridin-2-yl)-piperazin-1-yl]-phenyl}-2-(5-methyl-3-phenyl-1-propyl-1H-pyrrol-2-yl)-2-oxo-acetamide] | < 1 | < 1 | < 1 | < 1 | < 1 | < 1 | < 1 | < 1 | < 1 | < 1 | < 1 | < 1
CCCCn1c(C)cc(-c2ccccc2)c1C(=O)C(=O)Nc1ccc(N2CCN(c3cc(C)cc(C)n3)CC2)cc1 [Example 36, 2-(1-Butyl-5-methyl-3-phenyl-1H-pyrrol-2-yl)-N-{4-[4-(4,6-dimethyl-pyridin-2-yl)-piperazin-1-yl]-phenyl}-2-oxo-acetamide] | < 1 | < 1 | < 1 | < 1 | < 1 | < 1 | < 1 | < 1 | < 1 | < 1 | < 1 | < 1
Cc1cc(-c2ccccc2)c(C(=O)C(=O)Nc2cnc3ccccc3c2)n1C [Example 37, 2-(1,5-Dimethyl-3-phenyl-1H-pyrrol-2-yl)-2-oxo-N-quinolin-3-yl-acetamide] | < 1 | < 1 | < 1 | < 1 | < 1 | < 1 | < 1 | 1 to 10 (≈ 2.71 to 27.1 µM) | 1 to 10 (≈ 2.71 to 27.1 µM) | 1 to 10 (≈ 2.71 to 27.1 µM) | < 1 | < 1
Cc1cc(-c2ccccc2)c(C(=O)C(=O)Nc2ccc(N3CCN(c4ccccn4)CC3)cc2)n1C [Example 38, 2-(1,5-Dimethyl-3-phenyl-1H-pyrrol-2-yl)-2-oxo-N-[4-(4-pyridin-2-yl-piperazin-1-yl)-phenyl]-acetamide] | < 1 | < 1 | < 1 | < 1 | < 1 | < 1 | < 1 | < 1 | < 1 | < 1 | < 1 | < 1
Cc1cccc(N2CCN(c3ccc(NC(=O)C(=O)c4c(-c5ccccc5)cc(C)n4C)cc3)CC2)n1 [Example 39, 2-(1,5-Dimethyl-3-phenyl-1H-pyrrol-2-yl)-N-{4-[4-(6-methyl-pyridin-2-yl)-piperazin-1-yl]-phenyl}-2-oxo-acetamide] | < 1 | < 1 | < 1 | < 1 | < 1 | < 1 | < 1 | < 1 | < 1 | < 1 | < 1 | < 1
Cc1ccnc(N2CCN(c3ccc(NC(=O)C(=O)c4c(-c5ccccc5)cc(C)n4C)cc3)CC2)c1 [Example 40, 2-(1,5-Dimethyl-3-phenyl-1H-pyrrol-2-yl)-N-{4-[4-(4-methyl-pyridin-2-yl)-piperazin-1-yl]-phenyl}-2-oxo-acetamide] | < 1 | < 1 | < 1 | < 1 | < 1 | < 1 | < 1 | < 1 | < 1 | < 1 | < 1 | < 1
COCCn1c(C)cc(-c2ccccc2)c1C(=O)C(=O)Nc1cccc2ccncc12 [Example 42, N-Isoquinolin-8-yl-2-[1-(2-methoxy-ethyl)-5-methyl-3-phenyl-1H-pyrrol-2-yl]-2-oxo-acetamide] | > 10 | 1 to 10 (≈ 2.42 to 24.2 µM) | 1 to 10 (≈ 2.42 to 24.2 µM) | > 10 | > 10 | > 10 | > 10 | > 10 | 1 to 10 (≈ 2.42 to 24.2 µM) | > 10 | > 10 | > 10
Cc1cc(-c2ccccc2)c(C(=O)C(=O)Nc2cccc3ccncc23)n1C [Example 43, 2-(1,5-Dimethyl-3-phenyl-1H-pyrrol-2-yl)-N-isoquinolin-8-yl-2-oxo-acetamide] | < 1 | 1 to 10 (≈ 2.71 to 27.1 µM) | 1 to 10 (≈ 2.71 to 27.1 µM) | > 10 | 1 to 10 (≈ 2.71 to 27.1 µM) | 1 to 10 (≈ 2.71 to 27.1 µM) | 1 to 10 (≈ 2.71 to 27.1 µM) | > 10 | > 10 | > 10 | > 10 | 1 to 10 (≈ 2.71 to 27.1 µM)
Cc1cc(-c2ccccc2)c(C(=O)C(=O)Nc2ccc3ccccc3c2)n1C [Example 44, 2-(1,5-Dimethyl-3-phenyl-1H-pyrrol-2-yl)-N-naphthalen-2-yl-2-oxo-acetamide] | < 1 | < 1 | < 1 | < 1 | < 1 | < 1 | < 1 | < 1 | < 1 | < 1 | < 1 | < 1
Cc1cc(C)nc(N2CCN(c3ccc(NC(=O)C(=O)c4c(-c5ccccc5)ccn4C)cc3)CC2)c1 [Example 45, N-{4-[4-(4,6-Dimethyl-pyridin-2-yl)-piperazin-1-yl]-phenyl}-2-(1-methyl-3-phenyl-1H-pyrrol-2-yl)-2-oxo-acetamide] | < 1 | < 1 | < 1 | < 1 | < 1 | < 1 | < 1 | < 1 | < 1 | < 1 | < 1 | < 1
Cc1cc(C)nc(N2CCN(c3ccc(NC(=O)C(=O)c4cc(-c5ccccc5)cn4C)cc3)CC2)c1 [Example 46, N-{4-[4-(4,6-Dimethyl-pyridin-2-yl)-piperazin-1-yl]-phenyl}-2-(1-methyl-4-phenyl-1H-pyrrol-2-yl)-2-oxo-acetamide] | < 1 | < 1 | 1 to 10 (≈ 2.03 to 20.3 µM) | > 10 | < 1 | > 10 | > 10 | > 10 | > 10 | > 10 | 1 to 10 (≈ 2.03 to 20.3 µM) | 1 to 10 (≈ 2.03 to 20.3 µM)
Cc1cc(C)nc(N2CCN(c3ccc(NC(=O)C(=O)c4c(-c5ccccc5)cc(C)n4Cc4ccccc4)cc3)CC2)c1 [Example 48, 2-(1-Benzyl-5-methyl-3-phenyl-1H-pyrrol-2-yl)-N-{4-[4-(4,6-dimethyl-pyridin-2-yl)-piperazin-1-yl]-phenyl}-2-oxo-acetamide] | > 10 | < 1 | 1 to 10 (≈ 1.71 to 17.1 µM) | > 10 | > 10 | > 10 | > 10 | > 10 | > 10 | > 10 | > 10 | > 10
Cc1cc(-c2ccccc2)c(C(=O)C(=O)Nc2cccc3c(N4CCN(C)CC4)cccc23)n1C [Example 49, 2-(1,5-Dimethyl-3-phenyl-1H-pyrrol-2-yl)-N-[5-(4-methyl-piperazin-1-yl)-naphthalen-1-yl]-2-oxo-acetamide] | < 1 | 1 to 10 (≈ 2.14 to 21.4 µM) | 1 to 10 (≈ 2.14 to 21.4 µM) | > 10 | < 1 | > 10 | 1 to 10 (≈ 2.14 to 21.4 µM) | > 10 | 1 to 10 (≈ 2.14 to 21.4 µM) | > 10 | 1 to 10 (≈ 2.14 to 21.4 µM) | 1 to 10 (≈ 2.14 to 21.4 µM)
